Test results published in patent publication US4742053A, “3-Isoquinoliniomethyl cephalosporin derivatives” (Banyu Pharmaceutical Co., Ltd., priority 1984, dated 1988).
Values after ≈ are worked out from the molar mass of the structure shown. Read-outs that look alike come from different tables or passages of the source.

How the values were obtained:
Assay in all cases: MIC by agar plate dilution method
Format in all cases: cell-based
[1] = system: A. calcoaceticus No. 14; conditions: Acinetobacter calcoaceticus, NO.14, A. calcoaceticus No. 14; 10^6 CFU/ml; read-out: Minimum Inhibitory Concentration
Experimental: (§1) The minimum inhibitory concentrations (MIC: μg/ml) of the compounds of the present invention against various microorganisms were measured by an agar plate dilution method (inoculum size: 10^6 CFU/ml) by using Sensitivity Disk Agar (Nissui) in comparison with Cefotaxime and Ceftazidime as comparative compounds.
(§2) Minimum Inhibitory Concentration (μg/ml; 10^6 CFU/ml)

[2] = system: C. freundii No. 7; conditions: Citrobacter freundii; C. freundii No. 7; 10^6 CFU/ml; read-out: Minimum Inhibitory Concentration
Experimental: as §1, §2

[3] = system: E. cloaceae Nek 39; conditions: E. cloaceae Nek 39; 10^6 CFU/ml; read-out: Minimum Inhibitory Concentration
Experimental: as §1, §2

[4] = system: E. coli C/Rms149; conditions: Escherichia coli, read-out: Minimum Inhibitory Concentration, E. coli C/Rms149; 10^6 CFU/ml
Experimental: as §1, §2

[5] = system: E. coli CSH2; conditions: Escherichia coli, 10^6 CFU/ml, read-out: Minimum Inhibitory Concentration
Experimental: as §1, §2

[6] = system: E. coli CSH; conditions: Escherichia coli, 10^6 CFU/ml, read-out: Minimum Inhibitory Concentration
Experimental: as §1, §2

[7] = system: E. coli ML1410/Rte16; conditions: Escherichia coli, ML1410/RTE16, read-out: Minimum Inhibitory Concentration, E. coli ML1410/Rte16; 10^6 CFU/ml
Experimental: as §1, §2

[8] = system: E. coli NIHJJC-2; conditions: Escherichia coli, NIHJJC2, E. coli NIHJJC-2; 10^6 CFU/ml; read-out: Minimum Inhibitory Concentration
Experimental: as §1, §2

[9] = system: E. coli W3630/Rms212; conditions: Escherichia coli, W3630/RMS212, read-out: Minimum Inhibitory Concentration, E. coli W3630/Rms212; 10^6 CFU/ml
Experimental: as §1, §2

[10] = system: E. coli W3630/Rms213; conditions: Escherichia coli, W3630/RMS213, read-out: Minimum Inhibitory Concentration, E. coli W3630/Rms213; 10^6 CFU/ml
Experimental: as §1, §2

[11] = system: K. pneumoniae No. 42; conditions: Klebsiella pneumoniae; K. pneumoniae No. 42; 10^6 CFU/ml; read-out: Minimum Inhibitory Concentration
Experimental: as §1, §2

[12] = system: P. aeruginosa AK109; conditions: Pseudomonas aeruginosa, AK109, P. aeruginosa AK109; 10^6 CFU/ml; read-out: Minimum Inhibitory Concentration
Experimental: as §1, §2

[13] = system: P. aeruginosa AKR17; conditions: Pseudomonas aeruginosa, AKR17, P. aeruginosa AKR17; 10^6 CFU/ml; read-out: Minimum Inhibitory Concentration
Experimental: as §1, §2

[14] = system: P. cepacia 23; conditions: Burkholderia cepacia; P. cepacia 23; 10^6 CFU/ml; read-out: Minimum Inhibitory Concentration
Experimental: as §1, §2

[15] = system: P. maltophilia IID 1275; conditions: Stenotrophomonas maltophilia, IID1275; P. maltophilia IID 1275; 10^6 CFU/ml; read-out: Minimum Inhibitory Concentration
Experimental: as §1, §2

[16] = system: P. mirabilis JY10; conditions: Proteus mirabilis
Experimental: as §1, §2

[17] = system: P. vulgaris No. 33; conditions: Proteus vulgaris
Experimental: as §1, §2

[18] = system: P. vulgaris OB1043; conditions: Proteus vulgaris, OB1043, P. vulgaris OB1043; 10^6 CFU/ml; read-out: Minimum Inhibitory Concentration
Experimental: as §1, §2

[19] = system: S. aureus JS-1; conditions: Staphylococcus aureus, JS1; S. aureus JS-1; 10^6 CFU/ml; read-out: Minimum Inhibitory Concentration
Experimental: as §1, §2

[20] = system: S. aureus NIHJJC-1; conditions: Staphylococcus aureus
Experimental: as §1, §2

[21] = system: S. marcescens No. 16-2; conditions: Serratia marcescens
Experimental: as §1, §2

[22] = P. vulgaris No. 33, 10^6 CFU/ml, read-out: Minimum Inhibitory Concentration
[23] = NIHJJC1, S. aureus NIHJJC-1, 10^6 CFU/ml, read-out: Minimum Inhibitory Concentration
[24] = NO.162, read-out: Minimum Inhibitory Concentration
[25] = P. mirabilis JY10, 10^6 CFU/ml, read-out: Minimum Inhibitory Concentration
[26] = NO.162, S. marcescens No. 16-2, 10^6 CFU/ml, read-out: Minimum Inhibitory Concentration

CC(C)ON=C(C(=O)NC1C(=O)N2C(C(=O)[O-])=C(C[N+]3(C)CCc4cc(O)c(O)cc4C3)CSC12)c1csc(N)n1 (stereo not drawn) [Ex. 13, 7-[(Z)-2-(2-aminothiazol-4-yl)-2-isopropoxyiminoacetamido]-3-(6,7-dihydroxy-2-methyl-1,2,3,4-tetrahydro-2-isoquinolinium)methyl-3-cephem-4-carboxylate] gave an MIC [1] of 0.2 µg/mL (≈ 0.332 µM), an MIC [2] of 3.12 µg/mL (≈ 5.18 µM) and an MIC [3] of 6 ng/mL (≈ 0.00996 µM). For the same compound, the MIC [4] was 0.025 µg/mL (≈ 0.0415 µM), the MIC [5] was 0.05 µg/mL (≈ 0.083 µM) and the MIC [6] was 0.05 µg/mL (≈ 0.083 µM). For the same compound, the MIC [7] was 0.025 µg/mL (≈ 0.0415 µM), the MIC [8] was 0.05 µg/mL (≈ 0.083 µM) and the MIC [9] was 0.0125 µg/mL (≈ 0.0207 µM). The MIC [10] was 0.05 µg/mL (≈ 0.083 µM), the MIC [11] was 0.1 µg/mL (≈ 0.166 µM) and the MIC [12] was 0.05 µg/mL (≈ 0.083 µM). For the same compound, the MIC [13] was 0.2 µg/mL (≈ 0.332 µM), the MIC [14] was 0.05 µg/mL (≈ 0.083 µM) and the MIC [15] was 12.5 µg/mL (≈ 20.7 µM). For the same compound, the MIC ([16]; JY10, read-out: Minimum Inhibitory Concentration) was 0.39 µg/mL (≈ 0.647 µM), the MIC [17, 22] was 0.1 µg/mL (≈ 0.166 µM) and the MIC [18] was 0.2 µg/mL (≈ 0.332 µM). For the same compound, the MIC [19] was 12.5 µg/mL (≈ 20.7 µM), the MIC [20, 23] was 3.12 µg/mL (≈ 5.18 µM) and the MIC [21, 24] was 1.56 µg/mL (≈ 2.59 µM).
With C[N+]1(CC2=C(C(=O)[O-])N3C(=O)C(NC(=O)C(=NOCC(=O)O)c4csc(N)n4)C3SC2)CCc2cc(O)c(O)cc2C1 (stereo not drawn) [Ex. 14-F, 7-[(Z)-2-(2-aminothiazol-4-yl)-2-carboxymethoxyiminoacetamido]-3-(6,7-dihydroxy-2-methyl-1,2,3,4-tetrahydro-2-isoquinolinium)methyl-3-cephem-4-carboxylate] the MIC [1] was 0.1 µg/mL (≈ 0.162 µM), the MIC [2] was 0.78 µg/mL (≈ 1.26 µM) and the MIC [3] was 6 ng/mL (≈ 0.0097 µM). The MIC [4] was 0.025 µg/mL (≈ 0.0404 µM), the MIC [5] was 0.025 µg/mL (≈ 0.0404 µM) and the MIC [6] was 0.05 µg/mL (≈ 0.0808 µM). The MIC [7] was 0.025 µg/mL (≈ 0.0404 µM), the MIC [8] was 0.025 µg/mL (≈ 0.0404 µM) and the MIC [9] was 0.006 µg/mL (≈ 0.0097 µM). The MIC [10] was 0.1 µg/mL (≈ 0.162 µM), the MIC [11] was 0.05 µg/mL (≈ 0.0808 µM) and the MIC [12] was 0.05 µg/mL (≈ 0.0808 µM). It also gave an MIC [13] of 0.1 µg/mL (≈ 0.162 µM), an MIC [14] of 0.05 µg/mL (≈ 0.0808 µM) and an MIC [15] of 3.12 µg/mL (≈ 5.04 µM). The MIC [16, 25] was 0.2 µg/mL (≈ 0.323 µM), the MIC ([17]; NO.33, read-out: Minimum Inhibitory Concentration) was 0.05 µg/mL (≈ 0.0808 µM) and the MIC [18] was 0.1 µg/mL (≈ 0.162 µM). It also gave an MIC [19] of 50 µg/mL (≈ 80.8 µM), an MIC [20, 23] of 12.5 µg/mL (≈ 20.2 µM) and an MIC [21, 26] of 0.39 µg/mL (≈ 0.63 µM).
In the case of CC(C)(ON=C(C(=O)NC1C(=O)N2C(C(=O)[O-])=C(C[N+]3(C)CCc4cc(O)c(O)cc4C3)CSC12)c1csc(N)n1)C(=O)O (stereo not drawn) [Ex. 15, 7-[(Z)-2-(2-aminothiazol-4-yl)-2-(1-carboxy-1-methylethoxyimino)acetamido]-3-(6,7-dihydroxy-2-methyl-1,2,3,4-tetrahydro-2-isoquinolinium)methyl-3-cephem-4-carboxylate], the MIC [1] was 0.78 µg/mL (≈ 1.21 µM), the MIC [2] was 0.2 µg/mL (≈ 0.309 µM) and the MIC [3] was < 6 ng/mL. For the same compound, the MIC [4] was 0.0125 µg/mL (≈ 0.0193 µM), the MIC [5] was 0.025 µg/mL (≈ 0.0387 µM) and the MIC [6] was 0.05 µg/mL (≈ 0.0773 µM). It also gave an MIC [7] of 0.025 µg/mL (≈ 0.0387 µM), an MIC [8] of 0.025 µg/mL (≈ 0.0387 µM) and an MIC [9] of 0.025 µg/mL (≈ 0.0387 µM). For the same compound, the MIC [10] was 0.025 µg/mL (≈ 0.0387 µM), the MIC [11] was 0.05 µg/mL (≈ 0.0773 µM) and the MIC [12] was 0.025 µg/mL (≈ 0.0387 µM). The MIC [13] was 0.05 µg/mL (≈ 0.0773 µM), the MIC [14] was 0.025 µg/mL (≈ 0.0387 µM) and the MIC [15] was 3.12 µg/mL (≈ 4.82 µM). It also gave an MIC [16, 25] of 0.1 µg/mL (≈ 0.155 µM), an MIC [17, 22] of 1 µg/mL (≈ 1.55 µM) and an MIC [18] of 0.05 µg/mL (≈ 0.0773 µM). It also gave an MIC [19] of 100 µg/mL (≈ 155 µM), an MIC [20, 23] of 12.5 µg/mL (≈ 19.3 µM) and an MIC [21, 26] of 0.39 µg/mL (≈ 0.603 µM).
Compound C[N+]1(CC2=C(C(=O)[O-])N3C(=O)C(NC(=O)C(=NOC4CCCC4)c4csc(N)n4)C3SC2)CCc2cc(O)c(O)cc2C1 (stereo not drawn) [Ex. 16-D, 7-[(Z)-2-(2-aminothiazol-4-yl)-2-cyclopentyloxyiminoacetamido]-3-(6,7-dihydroxy-2-methyl-1,2,3,4-tetrahydro-2-isoquinolinium)methyl-3-cephem-4-carboxylate] has an MIC [1] of 1.56 µg/mL (≈ 2.48 µM), an MIC [2] of 1.56 µg/mL (≈ 2.48 µM) and an MIC [3] of 12.5 ng/mL (≈ 0.0199 µM). For the same compound, the MIC [4] was 0.025 µg/mL (≈ 0.0398 µM), the MIC [5] was 0.1 µg/mL (≈ 0.159 µM) and the MIC [6] was 0.1 µg/mL (≈ 0.159 µM). It also gave an MIC [7] of 0.025 µg/mL (≈ 0.0398 µM), an MIC [8] of 0.1 µg/mL (≈ 0.159 µM) and an MIC [9] of 0.0125 µg/mL (≈ 0.0199 µM). It also gave an MIC [10] of 0.1 µg/mL (≈ 0.159 µM), an MIC [11] of 0.1 µg/mL (≈ 0.159 µM) and an MIC [12] of 0.05 µg/mL (≈ 0.0795 µM). For the same compound, the MIC [13] was 0.2 µg/mL (≈ 0.318 µM), the MIC [14] was 0.0125 µg/mL (≈ 0.0199 µM) and the MIC [15] was 12.5 µg/mL (≈ 19.9 µM). For the same compound, the MIC [16, 25] was 0.2 µg/mL (≈ 0.318 µM), the MIC [17, 22] was 0.1 µg/mL (≈ 0.159 µM) and the MIC [18] was 0.2 µg/mL (≈ 0.318 µM). For the same compound, the MIC [19] was 12.5 µg/mL (≈ 19.9 µM), the MIC ([20]; NIHJJC1, read-out: Minimum Inhibitory Concentration) was 1.56 µg/mL (≈ 2.48 µM) and the MIC [21, 24] was 1.56 µg/mL (≈ 2.48 µM).
